{
  "source": "paper PMC5598522",
  "about": "(Toxicology Reports, 2014)",
  "experiment": "Quantitative whole body autoradiography",
  "assay_type": "in vivo, rat",
  "settings": "male rat, [3H] Ticagrelor 3 mg/kg",
  "data": [
    {"smiles": "CCCSc1nc(N[C@@H]2C[C@H]2c2ccc(F)c(F)c2)c2nnn([C@@H]3C[C@H](OCCO)[C@@H](O)[C@H]3O)c2n1", "note": "[Ticagrelor]", "values": [
      {"measurement": "Adrenal gland radioactivity", "setting": "5 min", "result": 11.35, "unit": "μg equivalent/g"},
      {"measurement": "Adrenal gland radioactivity, fold of blood value", "setting": "5 min", "result": "5.33 fold of blood value"},
      {"measurement": "Blood (LSC) radioactivity", "setting": "5 min", "result": 2.131, "unit": "μg equivalent/g"},
      {"measurement": "Brain radioactivity", "setting": "5 min", "result": 0.05, "unit": "μg equivalent/g"},
      {"measurement": "Brain radioactivity, fold of blood value", "setting": "5 min", "result": "0.02 fold of blood value"},
      {"measurement": "Brown fat radioactivity", "setting": "5 min", "result": 1.35, "unit": "μg equivalent/g"},
      {"measurement": "Brown fat radioactivity, fold of blood value", "setting": "5 min", "result": "0.63 fold of blood value"},
      {"measurement": "Eye radioactivity", "setting": "5 min", "result": 0.50, "unit": "μg equivalent/g"},
      {"measurement": "Eye radioactivity, fold of blood value", "setting": "5 min", "result": "0.23 fold of blood value"},
      {"measurement": "Heart radioactivity", "setting": "5 min", "result": 9.15, "unit": "μg equivalent/g"},
      {"measurement": "Heart radioactivity, fold of blood value", "setting": "5 min", "result": "4.29 fold of blood value"},
      {"measurement": "Kidney radioactivity", "setting": "5 min", "result": 10.62, "unit": "μg equivalent/g"},
      {"measurement": "Kidney radioactivity, fold of blood value", "setting": "5 min", "result": "4.98 fold of blood value"},
      {"measurement": "Liver radioactivity", "setting": "5 min", "result": 16.11, "unit": "μg equivalent/g"},
      {"measurement": "Liver radioactivity, fold of blood value", "setting": "5 min", "result": "7.56 fold of blood value"},
      {"measurement": "Lung radioactivity", "setting": "5 min", "result": 7.31, "unit": "μg equivalent/g"},
      {"measurement": "Lung radioactivity, fold of blood value", "setting": "5 min", "result": "3.43 fold of blood value"},
      {"measurement": "Pancreas radioactivity", "setting": "5 min", "result": 7.35, "unit": "μg equivalent/g"},
      {"measurement": "Pancreas radioactivity, fold of blood value", "setting": "5 min", "result": "3.45 fold of blood value"},
      {"measurement": "Pituitary gland radioactivity", "setting": "5 min", "result": 8.03, "unit": "μg equivalent/g"},
      {"measurement": "Pituitary gland radioactivity, fold of blood value", "setting": "5 min", "result": "3.77 fold of blood value"},
      {"measurement": "Salivary gland radioactivity", "setting": "5 min", "result": 3.66, "unit": "μg equivalent/g"},
      {"measurement": "Salivary gland radioactivity, fold of blood value", "setting": "5 min", "result": "1.72 fold of blood value"},
      {"measurement": "Skeletal muscle radioactivity", "setting": "5 min", "result": 3.15, "unit": "μg equivalent/g"},
      {"measurement": "Skeletal muscle radioactivity, fold of blood value", "setting": "5 min", "result": "1.48 fold of blood value"},
      {"measurement": "Spinal cord radioactivity", "setting": "5 min", "result": 0.05, "unit": "μg equivalent/g"},
      {"measurement": "Spinal cord radioactivity, fold of blood value", "setting": "5 min", "result": "0.02 fold of blood value"},
      {"measurement": "Spleen radioactivity", "setting": "5 min", "result": 4.86, "unit": "μg equivalent/g"},
      {"measurement": "Spleen radioactivity, fold of blood value", "setting": "5 min", "result": "2.28 fold of blood value"},
      {"measurement": "Stomach wall radioactivity", "setting": "5 min", "result": 7.11, "unit": "μg equivalent/g"},
      {"measurement": "Stomach wall radioactivity, fold of blood value", "setting": "5 min", "result": "3.34 fold of blood value"},
      {"measurement": "Thymus radioactivity", "setting": "5 min", "result": 0.99, "unit": "μg equivalent/g"},
      {"measurement": "Thymus radioactivity, fold of blood value", "setting": "5 min", "result": "0.46 fold of blood value"},
      {"measurement": "Thyroid gland radioactivity", "setting": "5 min", "result": 7.84, "unit": "μg equivalent/g"},
      {"measurement": "Thyroid gland radioactivity, fold of blood value", "setting": "5 min", "result": "3.68 fold of blood value"},
      {"measurement": "Adrenal gland radioactivity", "setting": "0.5 h", "result": 5.26, "unit": "μg equivalent/g"},
      {"measurement": "Adrenal gland radioactivity, fold of blood value", "setting": "0.5 h", "result": "5.16 fold of blood value"},
      {"measurement": "Blood (LSC) radioactivity", "setting": "0.5 h", "result": 1.02, "unit": "μg equivalent/g"},
      {"measurement": "Brain radioactivity", "setting": "0.5 h", "result": "0.04/0.04 μg equivalent/g"},
      {"measurement": "Brain radioactivity, fold of blood value", "setting": "0.5 h", "result": "0.04/0.04 fold of blood value"},
      {"measurement": "Brown fat radioactivity", "setting": "0.5 h", "result": 0.95, "unit": "μg equivalent/g"},
      {"measurement": "Brown fat radioactivity, fold of blood value", "setting": "0.5 h", "result": "0.93 fold of blood value"},
      {"measurement": "Eye radioactivity", "setting": "0.5 h", "result": "0.04/0.04 μg equivalent/g"},
      {"measurement": "Eye radioactivity, fold of blood value", "setting": "0.5 h", "result": "0.04/0.04 fold of blood value"},
      {"measurement": "Heart radioactivity", "setting": "0.5 h", "result": 4.94, "unit": "μg equivalent/g"},
      {"measurement": "Heart radioactivity, fold of blood value", "setting": "0.5 h", "result": "4.84 fold of blood value"},
      {"measurement": "Kidney radioactivity", "setting": "0.5 h", "result": 6.77, "unit": "μg equivalent/g"},
      {"measurement": "Kidney radioactivity, fold of blood value", "setting": "0.5 h", "result": "6.64 fold of blood value"},
      {"measurement": "Liver radioactivity", "setting": "0.5 h", "result": 8.44, "unit": "μg equivalent/g"},
      {"measurement": "Liver radioactivity, fold of blood value", "setting": "0.5 h", "result": "8.27 fold of blood value"},
      {"measurement": "Lung radioactivity", "setting": "0.5 h", "result": 3.90, "unit": "μg equivalent/g"},
      {"measurement": "Lung radioactivity, fold of blood value", "setting": "0.5 h", "result": "3.82 fold of blood value"},
      {"measurement": "Pancreas radioactivity", "setting": "0.5 h", "result": 7.83, "unit": "μg equivalent/g"},
      {"measurement": "Pancreas radioactivity, fold of blood value", "setting": "0.5 h", "result": "7.68 fold of blood value"},
      {"measurement": "Pituitary gland radioactivity", "setting": "0.5 h", "result": 7.03, "unit": "μg equivalent/g"},
      {"measurement": "Pituitary gland radioactivity, fold of blood value", "setting": "0.5 h", "result": "6.89 fold of blood value"},
      {"measurement": "Salivary gland radioactivity", "setting": "0.5 h", "result": 5.57, "unit": "μg equivalent/g"},
      {"measurement": "Salivary gland radioactivity, fold of blood value", "setting": "0.5 h", "result": "5.46 fold of blood value"},
      {"measurement": "Skeletal muscle radioactivity", "setting": "0.5 h", "result": 3.26, "unit": "μg equivalent/g"},
      {"measurement": "Skeletal muscle radioactivity, fold of blood value", "setting": "0.5 h", "result": "3.20 fold of blood value"},
      {"measurement": "Spinal cord radioactivity", "setting": "0.5 h", "result": "0.04/0.04 μg equivalent/g"},
      {"measurement": "Spinal cord radioactivity, fold of blood value", "setting": "0.5 h", "result": "0.04/0.04 fold of blood value"},
      {"measurement": "Spleen radioactivity", "setting": "0.5 h", "result": 3.81, "unit": "μg equivalent/g"},
      {"measurement": "Spleen radioactivity, fold of blood value", "setting": "0.5 h", "result": "3.74 fold of blood value"},
      {"measurement": "Stomach wall radioactivity", "setting": "0.5 h", "result": 7.17, "unit": "μg equivalent/g"},
      {"measurement": "Stomach wall radioactivity, fold of blood value", "setting": "0.5 h", "result": "7.03 fold of blood value"},
      {"measurement": "Thymus radioactivity", "setting": "0.5 h", "result": 1.28, "unit": "μg equivalent/g"},
      {"measurement": "Thymus radioactivity, fold of blood value", "setting": "0.5 h", "result": "1.25 fold of blood value"},
      {"measurement": "Thyroid gland radioactivity", "setting": "0.5 h", "result": 3.85, "unit": "μg equivalent/g"},
      {"measurement": "Thyroid gland radioactivity, fold of blood value", "setting": "0.5 h", "result": "3.77 fold of blood value"},
      {"measurement": "Adrenal gland radioactivity", "setting": "2 h", "result": 1.19, "unit": "μg equivalent/g"},
      {"measurement": "Adrenal gland radioactivity, fold of blood value", "setting": "2 h", "result": "2.57 fold of blood value"},
      {"measurement": "Blood (LSC) radioactivity", "setting": "2 h", "result": 0.463, "unit": "μg equivalent/g"},
      {"measurement": "Brain radioactivity", "setting": "2 h", "result": 0.02, "unit": "μg equivalent/g"},
      {"measurement": "Brain radioactivity, fold of blood value", "setting": "2 h", "result": "0.04 fold of blood value"},
      {"measurement": "Brown fat radioactivity", "setting": "2 h", "result": 0.46, "unit": "μg equivalent/g"},
      {"measurement": "Brown fat radioactivity, fold of blood value", "setting": "2 h", "result": "0.99 fold of blood value"},
      {"measurement": "Eye radioactivity", "setting": "2 h", "result": 0.01, "unit": "μg equivalent/g"},
      {"measurement": "Eye radioactivity, fold of blood value", "setting": "2 h", "result": "0.02 fold of blood value"},
      {"measurement": "Heart radioactivity", "setting": "2 h", "result": 1.73, "unit": "μg equivalent/g"},
      {"measurement": "Heart radioactivity, fold of blood value", "setting": "2 h", "result": "3.74 fold of blood value"}
    ]}
  ]
}
